According to US7019109B2, “SSTR1-selective analogs” (The Salk Institute for Bilogical Studies, priority 2001, dated 2006):
Like-named read-outs stand apart in the source and are kept apart here. *1 amine or outer side, *2 acyl side, *3 side chain or, on linkers, in order; H or OH if unused. Where a SMILES comes first, the peptide text is derived from it. Bridges are numbered along the chain shown (N, C = ends). [ ]: non-standard residue; d: D form. The star is where a group is joined. NMePhe(4-CH2NHiPr) = CN[C@@H](Cc1ccc(CNC(C)C)cc1)C(=O)O; Tyr(Nα-carbamoyl) = NC(=O)N[C@@H](Cc1ccc(O)cc1)C(=O)*; Phe(4-CH2NHiPr) = CC(C)NCc1ccc(C[C@H](N)C(=O)O)cc1; X3 = NC(=O)N[C@@H](Cc1ccc(O)c(I)c1)C(=O)*; X1 = NC(=O)N[C@@H](CS[*:2])C(=O)[*:1]; d2Nal = N[C@H](Cc1ccc2ccccc2c1)C(=O)O; X2 = NC(=O)N[C@H](CS[*:2])C(=O)[*:1]; NMeS = CN[C@@H](CO)C(=O)O

What was measured:
Type in all cases: binding
[1] = target: T1, human SSTR1 (Homo sapiens, UniProt P30872); experiment: Displacement of 125I-[Leu8,D-Trp22,Tyr25]-SRIF-28 from cloned SSTR1 (receptor autoradiography)
T1 construct: expressed in transfected cells; host or cells: CHO-K1 cells and CCL39 cells
T1 sequence (P30872 whole entry): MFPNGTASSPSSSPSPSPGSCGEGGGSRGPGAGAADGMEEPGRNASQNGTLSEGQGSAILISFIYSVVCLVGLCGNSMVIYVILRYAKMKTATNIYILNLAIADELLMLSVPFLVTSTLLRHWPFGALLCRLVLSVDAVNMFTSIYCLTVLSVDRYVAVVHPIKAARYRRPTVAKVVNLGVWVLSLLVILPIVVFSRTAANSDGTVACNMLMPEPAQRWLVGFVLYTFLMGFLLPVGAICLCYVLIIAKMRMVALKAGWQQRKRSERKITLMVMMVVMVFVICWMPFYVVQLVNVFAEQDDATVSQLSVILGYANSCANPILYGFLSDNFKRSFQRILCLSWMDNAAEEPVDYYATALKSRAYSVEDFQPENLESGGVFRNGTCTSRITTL
Protocol: (§1) Generally, recombinant cells expressing the receptor are washed and homogenized to prepare a crude protein homogenate that is frozen, embedded and then cut in 10–20 μm thin sections, as known in this art. Candidate substances, such as potential SRIF agonists and antagonists, are incubated with the tissue sections, and the interaction between the candidate substance and the receptor polypeptide is monitored.
(§2) Receptor binding assays are performed on cloned SRIF receptors as generally set forth in Reubi, J. C. et al., J. Clin. Endocrinol. […] Med. 2000, 27, 273–282.
(§3) In vitro Bioassay: The various somatostatin analogs are tested in vitro for their ability to bind to isolated cloned receptors expressed on CHO-K1 cells and CCL39 cells. CHO-K1 cells are grown in Ham's F-12 medium, and CCL39 cells are grown in Dulbecco's modified Eagle's medium/Ham's F-12(1:1) mix, supplemented with 10% fetal bovine serum, 100 U/ml penicillin and 100 μg/ml streptomycin, in humidified air containing 5% CO2 at 37° C.
(§4) Cells are washed and prepared to produce homogenates as described in detail in Reubi, J. C. et al, Eur. J. Nucl. Med. 2000, 27, 273–282.
(§5) Receptor autoradiography is performed on 20 μm thick cryostat sections of the membrane pellets, mounted on microscope slides, and then stored at −20° C. […] Increasing concentrations of the unlabeled peptide are used ranging from 0.1–1000 nM. […] IC50 values are calculated after quantification of the data using a computer-assisted image processing system as known in this art.

[2] = target: T2, human SSTR2 (Homo sapiens, UniProt P30874); experiment: Displacement of 125I-[Leu8,D-Trp22,Tyr25]-SRIF-28 from cloned SSTR2 (receptor autoradiography); settings: read-out: IC50 (nM) mSSTR2
T2 construct: expressed in transfected cells; host or cells: CHO-K1 cells and CCL39 cells
T2 sequence (P30874 whole entry): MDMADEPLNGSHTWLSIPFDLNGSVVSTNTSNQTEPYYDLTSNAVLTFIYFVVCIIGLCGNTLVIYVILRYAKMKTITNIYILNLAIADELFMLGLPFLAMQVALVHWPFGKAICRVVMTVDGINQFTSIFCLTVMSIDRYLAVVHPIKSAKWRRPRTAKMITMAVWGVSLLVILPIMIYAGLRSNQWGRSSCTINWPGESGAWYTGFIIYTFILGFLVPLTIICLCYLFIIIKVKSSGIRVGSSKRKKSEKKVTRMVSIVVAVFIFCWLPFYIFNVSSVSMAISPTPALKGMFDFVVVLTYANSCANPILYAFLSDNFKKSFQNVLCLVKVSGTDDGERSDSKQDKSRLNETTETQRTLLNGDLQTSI
Protocol: as §1, §2, §3, §4
(§6) Receptor autoradiography is performed on 20 μm thick cryostat sections of the membrane pellets, mounted on microscope slides, and then stored at −20° C. […] […] […] IC50 values are calculated after quantification of the data using a computer-assisted image processing system as known in this art.

[3] = target: T3, human SSTR4 (Homo sapiens, UniProt P31391); experiment: Displacement of 125I-[Leu8,D-Trp22,Tyr25]-SRIF-28 from cloned SSTR4 (receptor autoradiography); settings: read-out: IC50 (nM) mSSTR4
T3 construct: expressed in transfected cells; host or cells: CHO-K1 cells and CCL39 cells
T3 sequence (P31391 whole entry): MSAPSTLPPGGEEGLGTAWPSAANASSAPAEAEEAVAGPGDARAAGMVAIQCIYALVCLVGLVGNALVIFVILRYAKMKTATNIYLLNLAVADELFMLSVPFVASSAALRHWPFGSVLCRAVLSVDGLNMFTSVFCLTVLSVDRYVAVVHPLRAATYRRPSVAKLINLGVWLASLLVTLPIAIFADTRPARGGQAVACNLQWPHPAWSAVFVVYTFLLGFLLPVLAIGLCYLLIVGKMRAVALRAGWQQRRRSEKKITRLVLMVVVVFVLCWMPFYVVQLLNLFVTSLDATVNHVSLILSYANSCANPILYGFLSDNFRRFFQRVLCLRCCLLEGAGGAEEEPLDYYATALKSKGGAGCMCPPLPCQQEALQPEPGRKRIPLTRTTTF
Protocol: as §1, §2, §3, §4, §5

[4] = target: T4, human SSTR3 (Homo sapiens, UniProt P32745); experiment: Displacement of 125I-[Leu8,D-Trp22,Tyr25]-SRIF-28 from cloned SSTR3 (receptor autoradiography); settings: read-out: IC50 (nM) mSSTR3
T4 construct: expressed in transfected cells; host or cells: CHO-K1 cells and CCL39 cells
T4 sequence (P32745 whole entry): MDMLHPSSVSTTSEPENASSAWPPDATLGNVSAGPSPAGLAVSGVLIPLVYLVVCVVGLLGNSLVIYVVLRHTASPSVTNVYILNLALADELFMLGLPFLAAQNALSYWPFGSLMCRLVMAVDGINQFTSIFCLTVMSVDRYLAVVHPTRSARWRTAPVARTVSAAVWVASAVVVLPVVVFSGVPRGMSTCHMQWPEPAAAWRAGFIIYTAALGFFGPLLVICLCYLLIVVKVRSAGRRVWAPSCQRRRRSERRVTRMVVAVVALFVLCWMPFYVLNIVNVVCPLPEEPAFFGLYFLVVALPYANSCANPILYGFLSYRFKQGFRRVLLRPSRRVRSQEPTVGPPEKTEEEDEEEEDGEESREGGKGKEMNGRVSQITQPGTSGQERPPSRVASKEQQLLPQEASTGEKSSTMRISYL
Protocol: as §1, §2, §3, §4, §5

[5] = target: T5, human SSTR5 (Homo sapiens, UniProt P35346); experiment: Displacement of 125I-[Leu8,D-Trp22,Tyr25]-SRIF-28 from cloned SSTR5 (receptor autoradiography); settings: read-out: IC50 (nM) mSSTR5
T5 construct: expressed in transfected cells; host or cells: CHO-K1 cells and CCL39 cells
T5 sequence (P35346 whole entry): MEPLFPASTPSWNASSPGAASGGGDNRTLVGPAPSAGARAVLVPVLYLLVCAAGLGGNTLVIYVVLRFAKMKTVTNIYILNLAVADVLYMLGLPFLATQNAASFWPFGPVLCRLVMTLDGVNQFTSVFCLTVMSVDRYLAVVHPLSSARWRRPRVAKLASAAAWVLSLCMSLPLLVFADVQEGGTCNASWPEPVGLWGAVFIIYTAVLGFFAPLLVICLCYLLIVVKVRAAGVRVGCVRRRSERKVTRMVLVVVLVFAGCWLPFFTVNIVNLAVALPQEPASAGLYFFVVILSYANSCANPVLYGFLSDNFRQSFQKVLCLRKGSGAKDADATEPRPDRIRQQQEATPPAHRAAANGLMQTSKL
Protocol: as §1, §2, §3, §4, §6

[6] = inhibition of radioligand binding of 125I-[Leu8,D-Trp22,Tyr24]SRIF-28, cloned receptor, table, read-out: IC50 (nM) mSSTR1
[7] = inhibition of radioligand binding of 125I-[Leu8,D-Trp22,Tyr24]SRIF-28, cloned receptor, table
[8] = unit inferred, read-out: IC50 / binding affinity at SSTR1, unit inferred

Row | IC50 ([1]; displacement of iodinated SRIF-28 radioligand, read-out: IC50 / binding affinity at human SSTR1) [nM] | IC50 [1, 6] [nM] | IC50 [2] [nM] | IC50 [3] [nM] | IC50 [4] [nM] | IC50 [5] [nM] | IC50 [3, 7] [nM] | IC50 [1, 8] [nM] | Structure (SMILES) | binding strength and selectivity for SSTR1, in words ([1]; Peptide No. 27 and 2A after iodination)
1 | ~8.7 | 8.7 | > 10000 | 200 | 610 | > 10000 |  |  | CC(C)NCc1ccc(C[C@H]2C(=O)N[C@@H]([C@@H](C)O)C(=O)N[C@@H](Cc3ccccc3)C(=O)N[C@@H]([C@@H](C)O)C(=O)N[C@@H](CO)C(=O)N[C@H](C(=O)O)CSSC[C@H](N)C(=O)N[C@@H](CCCCN)C(=O)N[C@@H](Cc3ccccc3)C(=O)N[C@@H](Cc3ccccc3)C(=O)N[C@H](Cc3c[nH]c4ccccc34)C(=O)N2C)cc1 [Peptide No. 13, (cyclo)H-Cys-Lys-Phe-Phe-D-Trp-N^αMeIAmp-Thr-Phe-Thr-Ser-Cys-OH] (H-CKFF[dW][NMePhe(4-CH2NHiPr)]TFTSC-OH; disulfide 1-11) | 
2 |  | 17.4 | > 10000 | > 10000 | > 1000 | > 1000 |  |  | CC(C)NCc1ccc(C[C@@H]2NC(=O)[C@@H](Cc3c[nH]c4ccccc34)NC(=O)[C@H](Cc3ccccc3)NC(=O)[C@H](Cc3ccccc3)NC(=O)[C@H](CCCCN)NC(=O)[C@H](NC(N)=O)CSSC[C@@H](C(=O)O)NC(=O)[C@H](CO)NC(=O)[C@H]([C@@H](C)O)NC(=O)[C@H](Cc3ccc(O)cc3)NC(=O)[C@H]([C@@H](C)O)NC2=O)cc1 [Peptide No. 12C, (cyclo)CbmD-Cys-Lys-Phe-Phe-D-Trp-IAmp-Thr-Tyr-Thr-Ser-Cys-OH] (KFF[dW][Phe(4-CH2NHiPr)]TYTSC-OH; linker N-10 via X2) | 
3 |  | 25 | > 10000 | > 1000 | 600 | > 1000 |  |  | CC(C)NCc1ccc(C[C@@H]2NC(=O)[C@@H](Cc3c[nH]c4ccccc34)NC(=O)[C@H](Cc3ccccc3)NC(=O)[C@H](Cc3ccccc3)NC(=O)[C@H](CCCCN)NC(=O)[C@@H](N)CSSC[C@@H](C(=O)O)NC(=O)[C@H](CO)N(C)C(=O)[C@H]([C@@H](C)O)NC(=O)[C@H](Cc3ccccc3)NC(=O)[C@H]([C@@H](C)O)NC2=O)cc1 [Peptide No. 22A, (cyclo)H-Cys-Lys-Phe-Phe-D-Trp-IAmp-Thr-Phe-Thr-N^αMeSer-Cys-OH] (H-CKFF[dW][Phe(4-CH2NHiPr)]TFT[NMeS]C-OH; disulfide 1-11) | 
4 |  | 33 | > 10000 |  | > 1000 | > 1000 | 487 |  | CC(C)NCc1ccc(C[C@@H]2NC(=O)[C@@H](Cc3c[nH]c4ccccc34)NC(=O)[C@H](Cc3ccccc3)NC(=O)[C@H](Cc3ccccc3)NC(=O)[C@H](CCCCN)NC(=O)[C@H](NC(=O)[C@H](Cc3ccc(O)cc3)NC(N)=O)CSSC[C@@H](C(=O)O)NC(=O)[C@H](CO)NC(=O)[C@H]([C@@H](C)O)NC(=O)[C@H](Cc3ccccc3)NC(=O)[C@H]([C@@H](C)O)NC2=O)cc1 [Peptide No. 14C, (cyclo)CbmTyr-D-Cys-Lys-Phe-Phe-D-Trp-IAmp-Thr-Phe-Thr-Ser-Cys-OH] ({Tyr(Nα-carbamoyl)}-[dC]KFF[dW][Phe(4-CH2NHiPr)]TFTSC-OH; disulfide 1-11) | 
5 |  | 34.7 | > 1000 | > 1000 | 290 | > 1000 |  |  | CC(C)NCc1ccc(C[C@@H]2NC(=O)[C@@H](Cc3c[nH]c4ccccc34)NC(=O)[C@H](Cc3ccccc3)NC(=O)[C@H](Cc3ccccc3)NC(=O)[C@H](CCCCN)NC(=O)[C@@H](NC(=O)[C@H](Cc3ccc(O)c(I)c3)NC(N)=O)CSSC[C@@H](C(=O)O)NC(=O)[C@H](CO)NC(=O)[C@H]([C@@H](C)O)NC(=O)[C@H](Cc3ccccc3)NC(=O)[C@H]([C@@H](C)O)NC2=O)cc1 [Peptide No. 14B] (X3-CKFF[dW][Phe(4-CH2NHiPr)]TFTSC-OH; disulfide 1-11) | 
6 |  | 32 | > 10000 | > 10000 | > 1000 | > 10000 |  | ~32 | CC(C)NCc1ccc(C[C@H]2C(=O)N[C@@H]([C@@H](C)O)C(=O)N[C@@H](Cc3ccc(O)cc3)C(=O)N[C@@H]([C@@H](C)O)C(=O)N[C@@H](CO)C(=O)N[C@H](C(=O)O)CSSC[C@H](NC(N)=O)C(=O)N[C@@H](CCCCN)C(=O)N[C@@H](Cc3ccccc3)C(=O)N[C@@H](Cc3ccccc3)C(=O)N[C@H](Cc3ccc4ccccc4c3)C(=O)N2C)cc1 [Peptide No. 16, (cyclo)CbmCys-Lys-Phe-Phe-D-2Nal-N^αMeIAmp-Thr-Tyr-Thr-Ser-Cys-OH] (KFF[d2Nal][NMePhe(4-CH2NHiPr)]TYTSC-OH; linker N-10 via X1) | 
7 |  |  | > 10000 |  | 500 | > 1000 | > 1000 | 15 | CC(C)NCc1ccc(C[C@@H]2NC(=O)[C@@H](Cc3c[nH]c4ccccc34)NC(=O)[C@H](Cc3ccccc3)NC(=O)[C@H](Cc3ccccc3)NC(=O)[C@H](CCCCN)NC(=O)[C@@H](NC(=O)[C@H](Cc3ccc(O)cc3)NC(N)=O)CSSC[C@@H](C(=O)O)NC(=O)[C@H](CO)NC(=O)[C@H]([C@@H](C)O)NC(=O)[C@H](Cc3ccccc3)NC(=O)[C@H]([C@@H](C)O)NC2=O)cc1 [Peptide No. 14A, (cyclo)CbmTyr-Cys-Lys-Phe-Phe-D-Trp-IAmp-Thr-Phe-Thr-Ser-Cys-OH] ({Tyr(Nα-carbamoyl)}-CKFF[dW][Phe(4-CH2NHiPr)]TFTSC-OH; disulfide 1-11) | 
8 |  | 43 | > 10000 | > 1000 | > 1000 | > 10000 |  |  | CC(C)NCc1ccc(C[C@H]2C(=O)N[C@@H]([C@@H](C)O)C(=O)N[C@@H](Cc3ccc(O)cc3)C(=O)N[C@@H]([C@@H](C)O)C(=O)N[C@@H](CO)C(=O)N[C@H](C(=O)O)CSSC[C@H](NC(N)=O)C(=O)N[C@@H](CCCCN)C(=O)N[C@@H](Cc3ccccc3)C(=O)N[C@@H](Cc3ccccc3)C(=O)N[C@H](Cc3c[nH]c4ccccc34)C(=O)N2C)cc1 [Peptide No. 12, (cyclo)CbmCys-Lys-Phe-Phe-D-Trp-N^αMeIAmp-Thr-Tyr-Thr-Ser-Cys-OH] (KFF[dW][NMePhe(4-CH2NHiPr)]TYTSC-OH; linker N-10 via X1) | good selectivity with good binding strength
